Data taken from patent US7169787B2, “7-azaindoles, use thereof as phosphodiesterase 4 inhibitors and method for producing the same” (Elbion AG, priority 2000, dated 2007).
pIC50: −log10 of the molar value.

Experiments:
PDE 4 = experiment: Inhibition of phosphodiesterase 4 (enzyme preparation from human PMNL, [3H]-cAMP); assay type: biochemical; conditions: PDE 4 from human PMNL cytosol, 0.5 μM [3H]-cAMP
Description: The PDE 4 activity is determined in enzyme preparations from human polymorphonuclear […] (PMNL) and the PDE 2, 3 and 5 activity is determined with PDE from human thrombocytes. Human blood was anti-coagulated with citrate. By centrifuging at 700×g for 20 minutes at room temperature, the thrombocyte-rich plasma in the supernatant is separated from the erythrocytes and leukocytes. The thrombocytes are lysed by ultrasound and used in the PDE 3 and PDE 5 assays. For the determination of the PDE 2 activity, the cytosolic thrombocyte fraction is purified on an anionic exchange column by means of NaCl gradients and the PDE 2 peak is obtained for the assay. The PMNLs for the PDE 4 determination are isolated by a subsequent dextran sedimentation, followed by a gradient centrifugation with Ficoll-Paque. After the cells have been washed twice, the erythrocytes, still contained, are lysed within 6 minutes at 4° C. by the addition of 10 mL of hypotonic buffer (155 mM of NH4Cl, 10 mM of NaHCO3, 0.1 mM of EDTA, pH=7.4). The PMNLs, which are still intact, are washed twice with PBS and lysed with ultrasound. The supernatant of a one-hour centrifugation at 4° C. at 48,000×g contains the cytosolic fraction of the PDE 4 and is used for the PDE 4 measurements.
The phosphodiesterase activity is determined using the method described by Thompson et al. with some modifications (Thompson, W. J. and M. M. Appleman, Assay of cyclic nucleotide phosphodiesterase and resolution of multiple molecular forms of the enzyme, Adv. Cycl. Nucl. Res. 1979, 10, 69–92).
The reaction mixtures contain 50 mM of tris hydrochloride (pH 7.4), 5 mM of magnesium chloride, the inhibitors in various concentrations, the corresponding enzyme preparation as well as the further components necessary for determining the individual isoenzymes (see below). The reaction is started by the addition of the substrate, 0.5 μM of [^3H]-cAMP or [^3H]-cGMP (approximately 6000 CPM per test). The final volume is […]. Test substances are mixed as stock solutions in DMSO. The DMSO concentration in the reaction mixture is 1% v/v. The PDE activity is not affected by this concentration of DMSO. After the reaction is started by the addition of substrate, samples are incubated for 30 minutes at 37° C. The reaction is stopped by heating the test tubes for 2 minutes at 110° C. The samples remain for a further 10 minutes in ice. The addition of 30 μL of 5′-nucleotidase (1 mg/mL, from a poisonous snake suspension from Crotalus adamanteus) is followed by a 10-minutes incubation at 37° C. The samples are stopped on ice, in each case 400 μL of a mixture of Dowex, water and ethanol (1+1+1) is added, mixed well and incubated once again for 15 minutes on ice. The reaction vessels are centrifuged for 20 minutes at 3000×g. Aliquots of the supernatant (200 μL) are transferred directly to scintillation vessels. After the addition of 3 mL of scintillator, the samples are measured in the beta counter.
[^3H]-cAMP is used as substrate for the determination of the PDE 4, 3 and 2 activity and [^3H]-cGMP is used as substrate for the determination of the PDE 5 activity. The enzyme activities, which are nonspecific in each case, are determined in the presence of 100 μM of Rolipram for the determination of PDE 4 and in the presence of 100 μM of IBMX for the determination of the PDE 3 and 5 and subtracted from the test values. The incubation formulations of the PDE 3 assays contained 10 μM of Rolipram, in order to inhibit possible contaminations by PDE 4. The PDE 2 is tested with an SPA assay of the Amersham Company. The assay is carried out in the presence of the activator of the PDE 2 (5 μM of cGMP).

Lewis Rats = experiment: Inhibition of the lipopolysaccharide (LPS)-induced lung neutrophilia; assay type: in vivo, rat; conditions: 1 mg/kg p.o., 2 h before LPS provocation; BAL 6 h after provocation
Description: The inhibition of pulmonary neutrophil infiltration by the inventive substances is tested on male Lewis Rats (250–350 g). On the day of the experiments, the animals are placed individually in open 1 L Plexiglas boxes, which are connected to a head-nose exposure device. The animals are exposed to an aerosol of a lipopolysaccharide suspension (100 μg LPS/mL of 0.1% hydroxylamine solution) in PBS (LPS provocation). The LPS/hydroxylamine aerosol is nebulized by a nebulizer (Bird Micronebulizer, Palm Springs Calif., USA), which is operated with compressed air (0.2 MPa). The exposure time is 40 minutes, normal controls being nebulized also for 40 minutes with an aerosol of 0.1% hydroxylamine solution in PBS.
Six hours after the LPS provocation, there is a maximum, massive migration of neutrophil granulocytes into the lungs of the animals. At this time, the animals are anesthetized with an excess of ethyl urethane (1.5 g/kg of body weight i.p.) and a bronchoalveolar lavage (BAL) with 3×4 mL of Hank's balance solution is carried out. The total cell count and the number of neutrophil granulocytes of the pooled BAL liquid are subsequently determined with an automatic cell differentiation instrument (Bayer Diagnostics Technicon HIE). For each animal, the neutrophiles (NEUTRO) in the BAL are calculated in millions/animal: NEUTRO/μl×BAL recovery (mL)=NEUTRO/animal.
For each test, 2 control groups were also run (nebulization with 0.1% hydroxylamine solution in PBS and nebulization with 100 μg LPS/mL of 0.1% hydroxylamine solution in PBS).
The percentage inhibition of the neutrophilia of the experimental group, treated with substance, was calculated according to the following formula: {((LPSC−SC)−(LPSD−SC))/(LPSC−SC)}×100%=% inhibition SC=vehicle-treated control group challenged with 0.1% hydroxylamine solution; LPSC=vehicle-treated control group challenged with LPS (100 μg/mL 0.1% hydroxylamine solution); LPSD=substance-treated experimental group challenged with LPS (100 μg/mL 0.1% hydroxylamine solution) […]

With `Cc1ccc(Cn2cc(C(=O)C(=O)Nc3c(Cl)cncc3Cl)c3cccnc32)cc1` [Example 22] as the compound, how does the pIC50 (PDE 4) read?
Its pIC50 is 8.70.

What about the melting point of the same compound?
The melting point was 176 to 178 °C.

What about the “Inhibition of neutrophilia (table titled Inhibition of Eosinophilia)” value (Lewis Rats) of the same compound?
Its value is 64%.
